In one assay the target is MAO-A (Homo sapiens (Human), UniProt P21397). The note with it: read-out: MAO-A (Ki).
Another assay deals with MAO-B (Homo sapiens (Human), UniProt P27338). The note with it: read-out: MAO-B (Ki).
Assay [1] deals with Human recombinant LSD1 protein (Homo sapiens (Human), UniProt O60341). Description: biochemical.
Excerpt: The ability of the compounds of the invention to inhibit LSD1 can be tested as follows. Human recombinant LSD1 protein was purchased from BPS Bioscience Inc. In order to monitor LSD1 enzymatic activity and/or its inhibition rate by our inhibitor(s) of interest, di-methylated H3-K4 peptide (Millipore) was chosen as a substrate. The demethylase activity was estimated, under aerobic conditions, by measuring the release of H2O2 produced during the catalytic process, using the Amplex® Red peroxide/peroxidase-coupled assay kit (Invitrogen).
Within the experiment, each concentration of inhibitor was tested in triplicate. […] The enzymatic reactions were set up in a 50 mM sodium phosphate, pH 7.4 buffer. At the end of the incubation, Amplex® Red reagent and horseradish peroxidase (HPR) solution were added to the reaction according to the recommendations provided by the supplier (Invitrogen), and left to incubate for 30 extra minutes at room temperature in the dark. A 1 μM H2O2 solution was used as a control of the kit efficiency.
The Ki (IC50) of each inhibitor was estimated at half of the maximum activity.

SMILES strings stand for the structures. Where a name gives a salt, the structure may show the parent alone.

MAO-A, sequence (P21397 whole entry): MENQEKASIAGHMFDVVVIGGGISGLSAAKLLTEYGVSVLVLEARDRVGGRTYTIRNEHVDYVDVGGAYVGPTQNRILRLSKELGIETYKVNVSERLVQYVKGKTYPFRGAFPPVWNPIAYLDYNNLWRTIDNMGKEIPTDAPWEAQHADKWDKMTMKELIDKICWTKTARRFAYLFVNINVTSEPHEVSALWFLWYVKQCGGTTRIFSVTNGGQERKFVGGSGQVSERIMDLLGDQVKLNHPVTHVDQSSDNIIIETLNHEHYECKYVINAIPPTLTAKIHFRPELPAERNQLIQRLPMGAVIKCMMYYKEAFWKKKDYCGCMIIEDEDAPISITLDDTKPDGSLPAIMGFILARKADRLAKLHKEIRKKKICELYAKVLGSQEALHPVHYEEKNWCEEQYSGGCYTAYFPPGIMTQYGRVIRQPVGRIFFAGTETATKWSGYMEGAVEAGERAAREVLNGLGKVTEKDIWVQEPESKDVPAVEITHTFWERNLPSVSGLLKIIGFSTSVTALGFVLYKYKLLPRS
MAO-B, sequence (P27338 whole entry): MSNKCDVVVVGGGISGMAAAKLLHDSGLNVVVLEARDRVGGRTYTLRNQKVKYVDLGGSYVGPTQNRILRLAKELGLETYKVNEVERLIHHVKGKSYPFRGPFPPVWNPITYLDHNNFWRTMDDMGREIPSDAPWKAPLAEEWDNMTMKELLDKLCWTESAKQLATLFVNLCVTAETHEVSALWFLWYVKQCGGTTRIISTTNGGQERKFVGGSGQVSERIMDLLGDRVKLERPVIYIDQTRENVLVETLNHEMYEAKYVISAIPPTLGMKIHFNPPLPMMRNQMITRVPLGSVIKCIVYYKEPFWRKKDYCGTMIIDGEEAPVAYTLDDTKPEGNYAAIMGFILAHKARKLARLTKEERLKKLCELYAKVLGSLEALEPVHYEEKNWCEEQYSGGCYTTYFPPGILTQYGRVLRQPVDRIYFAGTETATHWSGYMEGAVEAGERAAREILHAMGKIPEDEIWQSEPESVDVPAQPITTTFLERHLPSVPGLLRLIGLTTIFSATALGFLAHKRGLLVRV

The term Ki denotes a measure of affinity in units of concentration, obtained from inhibition or displacement. In the case of `N[C@H]1C[C@@H]1c1ccc(-c2cccc(C(F)(F)F)c2)cc1` (relative stereo) [Example 1, (trans)-2-(3′-(trifluoromethyl)biphenyl-4-yl)cyclopropanamine hydrochloride], the Ki on MAO-A lay within 1 to 40 µM; on MAO-B it was 1 to 40 µM; in assay [1], 0.1 to 1 µM.
Consider `N[C@H]1C[C@@H]1c1ccc(-c2ccc(O)cc2)cc1` (relative stereo) [Example 3, 4′-((trans)-2-aminocyclopropyl)biphenyl-4-ol hydrochloride], for which the Ki on MAO-A lay within 1 to 40 µM; at MAO-B, 1 to 40 µM; in assay [1], 0.1 to 1 µM.
With `N[C@H]1C[C@@H]1c1ccc(-c2cccc(O)c2)cc1` (relative stereo) [Example 4, 4′-((trans)-2-aminocyclopropyl)biphenyl-3-ol hydrochloride], the Ki was in the range of 1 to 40 µM on MAO-A, 1 to 40 µM on MAO-B and 0.001 to 0.1 µM in assay [1].
On to `N#Cc1ccc(-c2ccc([C@H]3C[C@@H]3N)cn2)cc1` (relative stereo) [Example 12, 4-(5-((trans)-2-aminocyclopropyl)pyridin-2-yl)benzonitrile dihydrochloride], for which the Ki at MAO-A fell in the range of 1 to 40 µM; on MAO-B, 1 to 40 µM; in assay [1], 0.1 to 1 µM.
In the case of `N#Cc1cccc(-c2ccc([C@H]3C[C@@H]3N)cn2)c1` (relative stereo) [Example 13, 3-(5-((trans)-2-aminocyclopropyl)pyridin-2-yl)benzonitrile hydrochloride], the results for the Ki (at MAO-A; at MAO-B; in assay [1]) were 1 to 40 µM, 1 to 40 µM and 0.001 to 0.1 µM, respectively.
Turning to `Cc1cccc(-c2ccc([C@H]3C[C@@H]3N)cn2)c1` (relative stereo) [Example 15, (Trans)-2-(6-m-tolylpyridin-3-yl)cyclopropanamine hydrochloride], the Ki at MAO-A fell in the range of 1 to 40 µM; on MAO-B, 1 to 40 µM; in assay [1], 0.1 to 1 µM.
As to `N[C@H]1C[C@@H]1c1ccc(-c2ccc(O)cc2)nc1` (relative stereo) [Example 16, 4-(5-((trans)-2-aminocyclopropyl)pyridin-2-yl)phenol hydrochloride], the Ki lay in the range of 1 to 40 µM on MAO-A, 1 to 40 µM on MAO-B and 0.1 to 1 µM in assay [1].
In the case of `NC(=O)c1cccc(-c2ccc([C@H]3C[C@@H]3N)cn2)c1` (relative stereo) [Example 19, 3-(5-((trans)-2-aminocyclopropyl)pyridin-2-yl)benzamide hydrochloride], the Ki lay in the range of 1 to 40 µM on MAO-A, 1 to 40 µM on MAO-B and 0.1 to 1 µM in assay [1].
Regarding `N[C@H]1C[C@@H]1c1ccc(-c2ccc(F)c(O)c2)nc1` (relative stereo) [Example 23, 5-(5-((trans)-2-aminocyclopropyl)pyridin-2-yl)-2-fluorophenol hydrochloride], the Ki lay in the range of 1 to 40 µM at MAO-A, 1 to 40 µM on MAO-B and 0.001 to 0.1 µM in assay [1].
Consider `N[C@H]1C[C@@H]1c1ccc(-c2cc(O)cc(F)c2)nc1` (relative stereo) [Example 24, 3-(5-((trans)-2-aminocyclopropyl)pyridin-2-yl)-5-fluorophenol hydrochloride], for which the Ki on MAO-A lay in the range of 1 to 40 µM; on MAO-B, 1 to 40 µM; in assay [1] it was 0.001 to 0.1 µM.
On to `N[C@H]1C[C@@H]1c1ccc(-c2cc(O)ccc2F)nc1` (relative stereo) [Example 25, 3-(5-((trans)-2-aminocyclopropyl)pyridin-2-yl)-4-fluorophenol hydrochloride], for which the Ki lay in the range of 1 to 40 µM at MAO-A, 1 to 40 µM on MAO-B and 0.001 to 0.1 µM in assay [1].
As for `N[C@H]1C[C@@H]1c1ccc(-c2cccc(O)c2F)nc1` (relative stereo) [Example 26, 3-(5-((trans)-2-aminocyclopropyl)pyridin-2-yl)-2-fluorophenol hydrochloride], the Ki is 1 to 40 µM at MAO-A, 1 to 40 µM on MAO-B and 0.1 to 1 µM in assay [1].
With `N[C@H]1C[C@@H]1c1ccc(-c2cc(O)cc(Cl)c2)nc1` (relative stereo) [Example 29, 3-(5-((trans)-2-aminocyclopropyl)pyridin-2-yl)-5-chlorophenol hydrochloride], the figures for the inhibitory constant (Ki) (on MAO-A; at MAO-B; in assay [1]) were 1 to 40 µM, 1 to 40 µM and 0.001 to 0.1 µM, respectively.
Consider `N[C@H]1C[C@@H]1c1ccc(-c2cccc(C(F)(F)F)c2F)nc1` (relative stereo) [Example 30, (trans)-2-(6-(2-fluoro-3-(trifluoromethyl)phenyl)pyridin-3-yl)cyclopropanamine hydrochloride], for which the Ki on MAO-A was in the range of 1 to 40 µM; at MAO-B it was 1 to 40 µM; in assay [1], 0.1 to 1 µM.
Take `N[C@H]1C[C@@H]1c1ccc(-c2ccc(Cl)s2)nc1` (relative stereo) [Example 31, (trans)-2-(6-(5-chlorothiophen-2-yl)pyridin-3-yl)cyclopropanamine hydrochloride]: the Ki lay within 1 to 40 µM at MAO-A, 1 to 40 µM on MAO-B and 0.001 to 0.1 µM in assay [1].
In the case of `N[C@H]1C[C@@H]1c1ccc(-c2ccc3sccc3c2)nc1` (relative stereo) [Example 34, (trans)-2-(6-(benzo[b]thiophen-5-yl)pyridin-3-yl)cyclopropanamine hydrochloride], the Ki lay in the range of 1 to 40 µM at MAO-A, 1 to 40 µM at MAO-B and 0.1 to 1 µM in assay [1].
For the compound `COc1cc(-c2ccc([C@H]3C[C@@H]3N)cn2)ccc1F` (relative stereo) [Example 38, (trans)-2-(6-(4-fluoro-3-methoxyphenyl)pyridin-3-yl)cyclopropanamine hydrochloride], the Ki is 1 to 40 µM on MAO-A, 1 to 40 µM on MAO-B and 0.1 to 1 µM in assay [1].
As to `COc1cc(F)cc(-c2ccc([C@H]3C[C@@H]3N)cn2)c1` (relative stereo) [Example 39, (trans)-2-(6-(3-fluoro-5-methoxyphenyl)pyridin-3-yl)cyclopropanamine hydrochloride], the Ki was in the range of 1 to 40 µM on MAO-A, 1 to 40 µM at MAO-B and 0.1 to 1 µM in assay [1].
For `COc1ccc(F)c(-c2ccc([C@H]3C[C@@H]3N)cn2)c1` (relative stereo) [Example 40, (trans)-2-(6-(2-fluoro-5-methoxyphenyl)pyridin-3-yl)cyclopropanamine hydrochloride], the Ki lay within 1 to 40 µM on MAO-A, 1 to 40 µM on MAO-B and 0.1 to 1 µM in assay [1].
On to `COc1cccc(-c2ccc([C@H]3C[C@@H]3N)cn2)c1F` (relative stereo) [Example 41, (trans)-2-(6-(2-fluoro-3-methoxyphenyl)pyridin-3-yl)cyclopropanamine hydrochloride], for which the inhibitory constant (Ki) lay within 1 to 40 µM at MAO-A, 1 to 40 µM at MAO-B and 0.1 to 1 µM in assay [1].
For the compound `COc1ccc(Cl)c(-c2ccc([C@H]3C[C@@H]3N)cn2)c1` (relative stereo) [Example 43, (trans)-2-(6-(2-chloro-5-methoxyphenyl)pyridin-3-yl)cyclopropanamine hydrochloride], the Ki at MAO-A fell in the range of 1 to 40 µM; on MAO-B, 1 to 40 µM; in assay [1], 0.1 to 1 µM.
On to `Cc1ccc(-c2ccc([C@H]3C[C@@H]3N)cn2)cc1O` (relative stereo) [Example 46, 5-(5-((trans)-2-aminocyclopropyl)pyridin-2-yl)-2-methylphenol hydrochloride], for which the figures for the inhibitory constant (Ki) (on MAO-A; at MAO-B; in assay [1]) were 1 to 40 µM, 1 to 40 µM and 0.001 to 0.1 µM, respectively.
For the compound `N[C@H]1C[C@@H]1c1ccc(-c2cc(O)ccc2Cl)nc1` (relative stereo) [Example 47, 3-(5-((trans)-2-aminocyclopropyl)pyridin-2-yl)-4-chlorophenol hydrochloride], the Ki at MAO-A lay within 1 to 40 µM; on MAO-B it was 1 to 40 µM; in assay [1] it was 0.1 to 1 µM.
On to `N[C@H]1C[C@@H]1c1ccc(-c2cc(C(F)(F)F)ccc2F)nc1` (relative stereo) [Example 49, (trans)-2-(6-(2-fluoro-5-(trifluoromethyl)phenyl)pyridin-3-yl)cyclopropanamine hydrochloride], for which the Ki on MAO-A fell in the range of 1 to 40 µM; at MAO-B it was 1 to 40 µM; in assay [1], 0.1 to 1 µM.
Regarding `N[C@H]1C[C@@H]1c1ccc(-c2cc(O)c(F)c(F)c2)nc1` (relative stereo) [Example 59, 5-(5-((trans)-2-aminocyclopropyl)pyridin-2-yl)-2,3-difluorophenol hydrochloride], the Ki lay within 1 to 40 µM at MAO-B and 0.001 to 0.1 µM in assay [1].
For the compound `N[C@H]1C[C@@H]1c1ccc(-c2ccc(F)c(O)c2)cc1` (relative stereo) [Example 66, 4′-((trans)-2-aminocyclopropyl)-4-fluorobiphenyl-3-ol hydrochloride], the Ki in assay [1] was in the range of 0.001 to 0.1 µM.
On the same count and under the same terms, the same measure for `N[C@H]1C[C@@H]1c1ccc(-c2cc(O)cc(Cl)c2)cc1` (relative stereo) [Example 67, 4′-((trans)-2-aminocyclopropyl)-5-chlorobiphenyl-3-ol hydrochloride]: 0.001 to 0.1 µM; for `N[C@H]1C[C@@H]1c1ccc(-c2cccc(NS(=O)(=O)c3ccccc3)c2)cc1` (relative stereo) [Example 68, N-(4′-((trans)-2-aminocyclopropyl)biphenyl-3-yl)benzenesulfonamide hydrochloride]: 0.001 to 0.1 µM; for `CC(C)S(=O)(=O)Nc1cccc(-c2ccc([C@H]3C[C@@H]3N)cc2)c1` (relative stereo) [Example 69, N-(4′-((trans)-2-aminocyclopropyl)biphenyl-3-yl)propane-2-sulfonamide hydrochloride]: 0.001 to 0.1 µM.
With `N[C@H]1C[C@@H]1c1ccc(-c2cccc(NS(=O)(=O)C(F)(F)F)c2)cc1` (relative stereo) [Example 103, N-(4′-((trans)-2-aminocyclopropyl)-[1,1′-biphenyl]-3-yl)-1,1,1-trifluoromethanesulfonamide hydrochloride], in assay [1], the Ki was in the range of 0.1 to 1 µM.

Source of the values: US9676701B2, “Cyclopropylamine derivatives useful as LSD1 inhibitors” (Oryzon Genomics, S.A., priority 2010, dated 2017).
